Measurements published in patent publication US10611740B2, “Aryl dihydro-2H-benzo[b][1,4]oxazine sulfonamide and related compounds for use as agonists of RORγ and the treatment of disease” (Lycera Corporation, priority 2015, dated 2020).

Key:
[1] = biological target: T1, Gal4-RORγ-LBD (Homo sapiens, UniProt P51449); experiment: Gal4-RORγ Luciferase Reporter Assay in HEK-293T Cells; assay type: cell-based; details: HEK-293 cells, luciferase reporter, with 2 μM ursolic acid
T1 construct: expressed in transfected cells; host or cells: HEK-293 cells (pcDNA3.1neo plasmid)
T1 sequence (P51449 269-508 limits assumed): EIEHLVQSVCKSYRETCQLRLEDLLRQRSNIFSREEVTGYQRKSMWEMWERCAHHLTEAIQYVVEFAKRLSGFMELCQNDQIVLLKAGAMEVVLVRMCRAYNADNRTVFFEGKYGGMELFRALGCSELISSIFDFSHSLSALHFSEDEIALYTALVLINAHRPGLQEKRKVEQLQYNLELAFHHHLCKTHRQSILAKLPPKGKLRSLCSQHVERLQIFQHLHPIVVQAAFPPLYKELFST
How it was run: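 Luminescence read-out (One-Glo, 10 min RT) after overnight compound exposure at 37 °C in HEK-293 cells carrying Gal4-RORγ-LBD plus a Gal4-luciferase reporter, in the presence of 2 μM ursolic acid. Max Response is the upper plateau from a 4-parameter logistic fit, normalized to untreated signal = 100.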

[2] = biological target: T2, RORγ-LBD (Homo sapiens, UniProt P51449); experiment: RORγ-Ligand Binding Domain (LBD) TR-FRET Assay; assay type: biochemical;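 on TR-FRET Assay Max Response: 665/615 nm ratio relative to signal without ursolic acid or compound set at 100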
T2 construct: made in house; host or cells: SF9 cells (baculovirus)
T2 sequence (P51449 269-508 limits assumed): T1 sequence (P51449 269-508 limits assumed)
How it was run: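 TR-FRET read-out using a biotin-tagged SRC1 coactivator LXXLL peptide (200 nM final), with the antagonist ursolic acid present at 2 μM final. Receptor is His-tagged LBD expressed in SF9 cells, ~3 nM final in pH 7.0 Tris/KCl/EDTA/DTT/BSA buffer; compounds in 1% DMSO final.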

Row | SMILES | EC50 [1] | Gal4-RORγ Assay Max Response [1] | EC50 [2] | TR-FRET Assay Max Response [2]
1 | O=C(O)CC[C@H]1CN(S(=O)(=O)c2cccc(C(F)(F)F)c2)c2cc(-c3cc(F)cc(F)c3F)ccc2O1 [Compound 4AK, (S)-3-(4-((3-(trifluoromethyl)-phenyl)sulfonyl)-6-(2,3,5-trifluorophenyl)-3,4-dihydro-2H-benzo[b][1,4]oxazin-2-yl)propanoic acid] | < 0.5 µM | ** (The symbol “**” indicates a value in the range of greater than 90 to 150) | < 0.5 µM | **** (The symbol “****” indicates a value greater than 200)
2 | CN(C)c1cncc(-c2ccc3c(c2)N(S(=O)(=O)c2cccc(C(F)(F)F)c2)C[C@H](CCC(=O)O)O3)n1 [Compound 4AL, (S)-3-(6-(6-(dimethylamino)-pyrazin-2-yl)-4-((3-(trifluoromethyl)phenyl)-sulfonyl)-3,4-dihydro-2H-benzo[b][1,4]oxazin-2-yl)propanoic acid] | < 0.5 µM | ** (The symbol “**” indicates a value in the range of greater than 90 to 150) | < 0.5 µM | **** (The symbol “****” indicates a value greater than 200)
3 | CNc1cccc(-c2ccc3c(c2)N(S(=O)(=O)c2cccc(C(F)(F)F)c2)C[C@H](CCC(=O)O)O3)n1 [Compound 4AM, (S)-3-(6-(6-(methylamino)-pyridin-2-yl)-4-((3-(trifluoromethyl)phenyl)-sulfonyl)-3,4-dihydro-2H-benzo[b][1,4]oxazin-2-yl)propanoic acid] | 0.5 to 5 µM | ** (The symbol “**” indicates a value in the range of greater than 90 to 150) | < 0.5 µM | **** (The symbol “****” indicates a value greater than 200)
4 | Cc1cc(-c2ccc3c(c2)N(S(=O)(=O)c2cccc(C(F)(F)F)c2)C[C@H](CCC(=O)O)O3)nc(N(C)C)c1 [Compound 4AN, (S)-3-(6-(6-(dimethylamino)-4-methylpyridin-2-yl)-4-((3-(trifluoromethyl)phenyl)sul-fonyl)-3,4-dihydro-2H-benzo[b][1,4]oxazin-2-yl)propanoic acid] | < 0.5 µM | ** (The symbol “**” indicates a value in the range of greater than 90 to 150) | < 0.5 µM | **** (The symbol “****” indicates a value greater than 200)
5 | Cc1ccc(N(C)C)nc1-c1ccc2c(c1)N(S(=O)(=O)c1cccc(C(F)(F)F)c1)C[C@H](CCC(=O)O)O2 [Compound 4AO, (S)-3-(6-(6-(dimethylamino)-3-methylpyridin-2-yl)-4-((3-(trifluoromethyl)phenyl)sul-fonyl)-3,4-dihydro-2H-benzo[b][1,4]oxazin-2-yl)propanoic acid] | > 10 µM | * (The symbol “*” indicates a value in the range of 25 to 90) | 0.5 to 5 µM | * (The symbol “*” indicates a value in the range of 25 to 90)
6 | COc1cc(-c2ccc3c(c2)N(S(=O)(=O)c2cccc(C(F)(F)F)c2)C[C@H](CCC(=O)O)O3)nc(N(C)C)c1 [Compound 4AP, (S)-3-(6-(6-(dimethylamino)-4-methoxypyridin-2-yl)-4-((3-(trifluoromethyl)phenyl)sul-fonyl)-3,4-dihydro-2H-benzo[b][1,4]oxazin-2-yl)propanoic acid] | < 0.5 µM | ** (The symbol “**” indicates a value in the range of greater than 90 to 150) | < 0.5 µM | **** (The symbol “****” indicates a value greater than 200)
7 | O=C(O)CC[C@H]1CN(S(=O)(=O)c2cccc(C(F)(F)F)c2)c2cc(-c3cc(Cl)cc(F)c3F)ccc2O1 [Compound 4AQ, (S)-3-(6-(5-chloro-2,3-difluorophenyl)-4-((3-(trifluoromethyl)phenyl)sul-fonyl)-3,4-dihydro-2H-benzo[b][1,4]oxazin-2-yl)propanoic acid] | < 0.5 µM | ** (The symbol “**” indicates a value in the range of greater than 90 to 150) | < 0.5 µM | **** (The symbol “****” indicates a value greater than 200)
8 | COc1cc(F)c(F)c(-c2ccc3c(c2)N(S(=O)(=O)c2cccc(C(F)(F)F)c2)C[C@H](CCC(=O)O)O3)c1 [Compound 4AR, (S)-3-(6-(2,3-difluoro-5-methoxyphenyl)-4-((3-(trifluoromethyl)phenyl)sul-fonyl)-3,4-dihydro-2H-benzo[b][1,4]oxazin-2-yl)propanoic acid] | < 0.5 µM | ** (The symbol “**” indicates a value in the range of greater than 90 to 150) | < 0.5 µM | **** (The symbol “****” indicates a value greater than 200)
9 | O=C(O)CC[C@H]1CN(S(=O)(=O)c2cccc(C(F)(F)F)c2)c2cc(-c3cc(C(F)(F)F)cc(F)c3F)ccc2O1 [Compound 4AS, (S)-3-(6-(2,3-difluoro-5-(trifluoromethyl)phenyl)-4-((3-(trifluoromethyl)phenyl)-sulfonyl)-3,4-dihydro-2H-benzo[b][1,4]oxazin-2-yl)propanoic acid] | < 0.5 µM | ** (The symbol “**” indicates a value in the range of greater than 90 to 150) | < 0.5 µM | **** (The symbol “****” indicates a value greater than 200)
10 | CN(C)c1ccnc(-c2ccc3c(c2)N(S(=O)(=O)c2cccc(C(F)(F)F)c2)C[C@H](CCC(=O)O)O3)n1 [Compound 4AU, (S)-3-(6-(4-(dimethylamino)-pyrimidin-2-yl)-4-((3-(trifluoromethyl)phenyl)-sulfonyl)-3,4-dihydro-2H-benzo[b][1,4]oxazin-2-yl)propanoic acid] | 0.5 to 5 µM | ** (The symbol “**” indicates a value in the range of greater than 90 to 150) | < 0.5 µM | **** (The symbol “****” indicates a value greater than 200)
11 | O=C(O)CC[C@H]1CN(S(=O)(=O)c2cccc(C(F)(F)F)c2)c2cc(-c3cc(F)cc(Cl)c3F)ccc2O1 [Compound 4AY, (S)-3-(6-(3-chloro-2,5-difluorophenyl)-4-((3-(trifluoromethyl)phenyl)-sulfonyl)-3,4-dihydro-2H-benzo[b][1,4]oxazin-2-yl)propanoic acid] | < 0.5 µM | ** (The symbol “**” indicates a value in the range of greater than 90 to 150) | < 0.5 µM | *** (The symbol “***” indicates a value in the range of greater than 150 to 200)
12 | COc1cc(F)cc(-c2ccc3c(c2)N(S(=O)(=O)c2cccc(C(F)(F)F)c2)C[C@H](CCC(=O)O)O3)c1F [Compound 4AZ, (S)-3-(6-(2,5-difluoro-3-methoxyphenyl)-4-((3-(trifluoromethyl)phenyl)-sulfonyl)-3,4-dihydro-2H-benzo[b][1,4]oxazin-2-yl)propanoic acid] | < 0.5 µM | ** (The symbol “**” indicates a value in the range of greater than 90 to 150) | < 0.5 µM | **** (The symbol “****” indicates a value greater than 200)
13 | O=C(O)CC[C@H]1CN(S(=O)(=O)c2cccc(C(F)(F)F)c2)c2cc(-c3nccc(C(F)(F)F)n3)ccc2O1 [Compound 4B, (S)-3-(4-((3-(trifluoromethyl)-phenyl)sulfonyl)-6-(4-(trifluoromethyl)pyrimidin-2-yl)-3,4-dihydro-2H-benzo[b][1,4]oxazin-2-yl)propanoic acid] | < 0.5 µM | ** (The symbol “**” indicates a value in the range of greater than 90 to 150) | < 0.5 µM | *** (The symbol “***” indicates a value in the range of greater than 150 to 200)
14 | COc1cc(-c2ccc3c(c2)N(S(=O)(=O)c2cccc(C(F)(F)F)c2)C[C@H](CCC(=O)O)O3)ccn1 [Compound 4D, (S)-3-(6-(2-methoxypyridin-4-yl)-4-((3-(trifluoromethyl)-phenyl)sulfonyl)-3,4-dihydro-2H-benzo[b][1,4]oxazin-2-yl)propanoic acid] | 0.5 to 5 µM | * (The symbol “*” indicates a value in the range of 25 to 90) | < 0.5 µM | *** (The symbol “***” indicates a value in the range of greater than 150 to 200)
15 | COc1cccc(-c2ccc3c(c2)N(S(=O)(=O)c2cccc(C(F)(F)F)c2)C[C@H](CCC(=O)O)O3)n1 [Compound 4E, (S)-3-(6-(6-methoxypyridin-2-yl)-4-((3-(trifluoromethyl)-phenyl)sulfonyl)-3,4-dihydro-2H-benzo[b][1,4]oxazin-2-yl)propanoic acid] | 0.5 to 5 µM | ** (The symbol “**” indicates a value in the range of greater than 90 to 150) | < 0.5 µM | **** (The symbol “****” indicates a value greater than 200)
16 | COc1ccnc(-c2ccc3c(c2)N(S(=O)(=O)c2cccc(C(F)(F)F)c2)C[C@H](CCC(=O)O)O3)c1 [Compound 4F, (S)-3-(6-(4-methoxypyridin-2-yl)-4-((3-(trifluoromethyl)-phenyl)sulfonyl)-3,4-dihydro-2H-benzo[b][1,4]oxazin-2-yl)propanoic acid] | 0.5 to 5 µM | ** (The symbol “**” indicates a value in the range of greater than 90 to 150) | < 0.5 µM | **** (The symbol “****” indicates a value greater than 200)
